We go through seven molecules from patent US20250099382A1, “Colloidal suspension of nutraceutical ingredients to treat traumatic brain injury” (priority 2023, published 2025).

Data set [1] deals with rat. The following applies: PubChem.gov, cited from earlier work; for LD50: rat, route not stated.
Data set [2] has as its system rat. As to the kind of experiment: LD50 reported by PubChem.gov, rat. The following applies: for human equivalent of LD50: LD50 divided by 6.2 (rat), times 65 kilograms.
A further data set concerns rats. The settings on record: up to 5 grams per kilogram for 60 days; cited from earlier work.
For data set [3], the system named is mice. The following applies: up to 5 grams per kilogram for 60 days; cited from earlier work.
Data set [4] has as its system mice. The settings on record: PubChem.gov, cited from earlier work.
Data set [5] concerns mice. Briefly: LD50 reported by PubChem.gov, human conversion with the mouse factor 12.3. The following applies: LD50 divided by 12.3, times 65 kilograms.
Text: Much of the research for toxicity and efficacy studies is preclinical, which necessitates a conversion of preclinical data to human equivalent data for interpretation of implications of preclinical data to clinical studies. […] For conversion of preclinical data from mice to human, divide the mg/kg dosage by 12.3. One would then multiply the result by an approximated average weight in kilograms for human clinical subjects to establish a preliminary clinical dosage. For example, if the preclinical dosage indicating drug efficacy were 100 mg/kg, this dosage would be divided by 12.3 to get 8.13 mg/kg, which would then be multiplied by an average weight in kilograms designated for the clinical study. For an average clinical subject weight of 65 kilograms, the original 100 mg/kg preclinical dosage would translate to 528 mg, which would be the preliminary dosage for clinical studies. For conversion of preclinical data from rat to human, the animal dosage would be divided by 6.2, then multiplied by the average subject weight in kilograms for the clinical study.
To convert this preclinical data to human equivalent data, 2.2 grams divided by 12.3 is 179 mg, times 65 kilograms for a human subject weighing 65 kg is approximately 11.6 grams.
For human equivalency dosage, 100 mg/kg divided by 12.3 is 8.13 mg/kg, times 65 for a 65-kilogram clinical subject is 528 mg/kg. […]
Data set [6] relates to weight drop contusion TBI. The following applies: 100 mg/kg to mice after weight drop contusion TBI; cited from earlier work.
In a further data set the test system is platelets. The settings on record: cited from earlier work.
Another data set has as its system TBI. The settings on record: 100 mg/kg, rats; cited from earlier work.
A further data set deals with human lymphocytes. The settings on record: human lymphocytes in culture; cited from earlier work.

Turning to `Nc1ncnc2c1ncn2[C@@H]1O[C@H](COP(=O)([O-])OP(=O)([O-])OP(=O)([O-])[O-])[C@@H](O)[C@H]1O.[Mg+2].[Mg+2]` [ATP, Adenosine triphosphate magnesium], in the data set with rat [1], the LD50 entry was “greater than 2 grams per kilogram”. Also, the “human equivalent of LD50” value in the data set with rat [2] was more than 21 grams.

Regarding Fulvic acid, the toxicity or genotoxicity result in the data set on rats and with mice [3] was “No toxicity or genotoxicity was found” each time.

Take `N[C@@H](CCC(=O)N[C@@H](CS)C(=O)NCC(=O)O)C(=O)O` [GSH, Glutathione]: in the data set on mice [4] (intravenous), the “LD50, intravenous” value is recorded as 2.2 grams per kilogram of animal weight. Moreover, in the data set on mice [5], the “human equivalent of intravenous LD50” value is “approximately 11.6 grams”.

Regarding `COc1cc(/C=C/C(=O)CC(=O)/C=C/c2ccc(O)c(OC)c2)ccc1O` [curcumin, Curcumin], the LD50 result in the data set on mice [4] (route not stated) is recorded as “greater than 2 grams per kilogram of animal weight”. In addition, the “recovery after TBI” value in [6] is recorded as “Major improvements in recovery were noted”. The “production of thromboxane A2 by platelets” value with platelets is listed as “reduced the production of thromboxane A2 by platelets”. In the data set on mice [5], the “human equivalent of LD50” value was “approximately 10.6 grams”.

For the molecule `Oc1ccc(C=Cc2cc(O)cc(O)c2)cc1` [resveratrol, 3,5,4′-Trihydroxystilbene], in the data set with TBI, the “secondary injury from TBI” value is recorded as “significantly attenuated secondary injury from TBI”. For the same molecule, the “genetic damage induced by permethrin” value with human lymphocytes was “diminishes genetic damage induced by permethrin”.

Regarding `CC(=O)O[C@H](CC(=O)[O-])C[N+](C)(C)C` [acetyl L-carnitine, Acetyl L-carnitine], the “LD50, intravenous” value in the data set on rat [1] (intravenous, rat species) was 1,265 mg/kg. The “human equivalent dosage of intravenous LD50” value in the data set on rat [2] (LD50 divided by 6.2, times 65 for a 65-kilogram human patient) is 13.2 grams.

`NCCS(=O)(=O)O` [taurine]: the LD50 entry in the data set on rat [1] is reported as “greater than 7 grams per kilogram”. Moreover, the “human equivalent of LD50” value in the data set with rat [2] is 74 grams.
